From ChEMBL document CHEMBL1154382, “Preliminary SAR analysis of novel antiproliferative N(6),5'-bis-ureidoadenosine derivatives” (2009)
Calls of active or inactive are those of the source.

Experiments:
Format in all cases: functional
[1] = tested on: CCRF-CEM; assay: Antiproliferative activity against human CCRF-CEM cells at 10 uM assessed as cell growth inhibition relative to control
[2] = tested on: HL-60(TB); assay: Antiproliferative activity against human HL-60(TB) cells at 10 uM assessed as cell growth inhibition relative to control
[3] = tested on: K562; assay: Antiproliferative activity against human K562 cells at 10 uM assessed as cell growth inhibition relative to control
[4] = tested on: MOLT-4; assay: Antiproliferative activity against human MOLT4 cells at 10 uM assessed as cell growth inhibition relative to control
[5] = tested on: RPMI8266; assay: Antiproliferative activity against human […] cells at 10 uM assessed as cell growth inhibition relative to control
[6] = tested on: A549; assay: Antiproliferative activity against human A549 cells at 10 uM assessed as cell growth inhibition relative to control
[7] = tested on: EKVX; assay: Antiproliferative activity against human EKVX cells at 10 uM assessed as cell growth inhibition relative to control
[8] = tested on: PC-3; assay: Antiproliferative activity against human PC3 cells at 10 uM assessed as cell growth inhibition relative to control
[9] = tested on: HOP-62; assay: Antiproliferative activity against human HOP62 cells at 10 uM assessed as cell growth inhibition relative to control
[10] = tested on: HOP-92; assay: Antiproliferative activity against human HOP92 cells at 10 uM assessed as cell growth inhibition relative to control
[11] = tested on: NCI-H226; assay: Antiproliferative activity against human NCI-H226 cells at 10 uM assessed as cell growth inhibition relative to control
[12] = tested on: NCI-H23; assay: Antiproliferative activity against human NCI-H23 cells at 10 uM assessed as cell growth inhibition relative to control
[13] = tested on: NCI-H322M; assay: Antiproliferative activity against human NCI-H322M cells at 10 uM assessed as cell growth inhibition relative to control
[14] = tested on: NCI-H460; assay: Antiproliferative activity against human NCI-H460 cells at 10 uM assessed as cell growth inhibition relative to control
[15] = tested on: NCI-H522; assay: Antiproliferative activity against human NCI-H522 cells at 10 uM assessed as cell growth inhibition relative to control
[16] = tested on: COLO 205; assay: Antiproliferative activity against human COLO205 cells at 10 uM assessed as cell growth inhibition relative to control
[17] = tested on: HCC 2998; assay: Antiproliferative activity against human HCC2998 cells at 10 uM assessed as cell growth inhibition relative to control
[18] = tested on: HCT-116; assay: Antiproliferative activity against human HCT116 cells at 10 uM assessed as cell growth inhibition relative to control
[19] = tested on: HCT-15; assay: Antiproliferative activity against human HCT15 cells at 10 uM assessed as cell growth inhibition relative to control
[20] = tested on: HT-29; assay: Antiproliferative activity against human HT-29 cells at 10 uM assessed as cell growth inhibition relative to control
[21] = tested on: KM12; assay: Antiproliferative activity against human KM12 cells at 10 uM assessed as cell growth inhibition relative to control
[22] = tested on: SW-620; assay: Antiproliferative activity against human SW620 cells at 10 uM assessed as cell growth inhibition relative to control
[23] = tested on: LOX IMVI; assay: Antiproliferative activity against human LOXIMVI cells at 10 uM assessed as cell growth inhibition relative to control
[24] = tested on: Malme-3M; assay: Antiproliferative activity against human MALME-3M cells at 10 uM assessed as cell growth inhibition relative to control
[25] = tested on: M14; assay: Antiproliferative activity against human M14 cells at 10 uM assessed as cell growth inhibition relative to control
[26] = tested on: SK-MEL-2; assay: Antiproliferative activity against human SK-MEL-2 cells at 10 uM assessed as cell growth inhibition relative to control
[27] = tested on: SK-MEL-28; assay: Antiproliferative activity against human SK-MEL-28 cells at 10 uM assessed as cell growth inhibition relative to control
[28] = tested on: SK-MEL-5; assay: Antiproliferative activity against human SK-MEL-5 cells at 10 uM assessed as cell growth inhibition relative to control
[29] = tested on: UACC-257; assay: Antiproliferative activity against human UACC257 cells at 10 uM assessed as cell growth inhibition relative to control
[30] = tested on: UACC-62; assay: Antiproliferative activity against human UACC62 cells at 10 uM assessed as cell growth inhibition relative to control
[31] = tested on: SF-268; assay: Antiproliferative activity against human SF268 cells at 10 uM assessed as cell growth inhibition relative to control
[32] = tested on: SF-295; assay: Antiproliferative activity against human SF295 cells at 10 uM assessed as cell growth inhibition relative to control
[33] = tested on: SF-539; assay: Antiproliferative activity against human SF539 cells at 10 uM assessed as cell growth inhibition relative to control
[34] = tested on: SNB-19; assay: Antiproliferative activity against human SNB19 cells at 10 uM assessed as cell growth inhibition relative to control
[35] = tested on: SNB-75; assay: Antiproliferative activity against human SNB75 cells at 10 uM assessed as cell growth inhibition relative to control
[36] = tested on: U-251; assay: Antiproliferative activity against human U251 cells at 10 uM assessed as cell growth inhibition relative to control
[37] = tested on: IGROV-1; assay: Antiproliferative activity against human IGROV1 cells at 10 uM assessed as cell growth inhibition relative to control
[38] = tested on: OVCAR-3; assay: Antiproliferative activity against human OVCAR-3 cells at 10 uM assessed as cell growth inhibition relative to control
[39] = tested on: OVCAR-4; assay: Antiproliferative activity against human OVCAR4 cells at 10 uM assessed as cell growth inhibition relative to control
[40] = tested on: OVCAR-5; assay: Antiproliferative activity against human OVCAR5 cells at 10 uM assessed as cell growth inhibition relative to control
[41] = tested on: OVCAR-8; assay: Antiproliferative activity against human OVCAR8 cells at 10 uM assessed as cell growth inhibition relative to control
[42] = tested on: SK-OV-3; assay: Antiproliferative activity against human SKOV3 cells at 10 uM assessed as cell growth inhibition relative to control
[43] = tested on: 786-0; assay: Antiproliferative activity against human 786-0 cells at 10 uM assessed as cell growth inhibition relative to control
[44] = tested on: A498; assay: Antiproliferative activity against human A498 cells at 10 uM assessed as cell growth inhibition relative to control
[45] = tested on: ACHN; assay: Antiproliferative activity against human ACHN cells at 10 uM assessed as cell growth inhibition relative to control
[46] = tested on: CAKI-1; assay: Antiproliferative activity against human Caki1 cells at 10 uM assessed as cell growth inhibition relative to control
[47] = tested on: RXF 393; assay: Antiproliferative activity against human RXF393 cells at 10 uM assessed as cell growth inhibition relative to control
[48] = tested on: SN12C; assay: Antiproliferative activity against human SN12C cells at 10 uM assessed as cell growth inhibition relative to control
[49] = tested on: TK-10; assay: Antiproliferative activity against human TK10 cells at 10 uM assessed as cell growth inhibition relative to control
[50] = tested on: UO-31; assay: Antiproliferative activity against human UO31 cells at 10 uM assessed as cell growth inhibition relative to control
[51] = tested on: BT-549; assay: Antiproliferative activity against human BT549 cells at 10 uM assessed as cell growth inhibition relative to control
[52] = tested on: Hs-578T; assay: Antiproliferative activity against human Hs 578T cells at 10 uM assessed as cell growth inhibition relative to control
[53] = tested on: MCF7; assay: Antiproliferative activity against human MCF7 cells at 10 uM assessed as cell growth inhibition relative to control
[54] = tested on: MDA-MB-231; assay: Antiproliferative activity against human MDA-MB-231 cells at 10 uM assessed as cell growth inhibition relative to control
[55] = tested on: MDA-MB-468; assay: Antiproliferative activity against human MDA-MB-468 cells at 10 uM assessed as cell growth inhibition relative to control
[56] = tested on: T47D; assay: Antiproliferative activity against human T47D cells at 10 uM assessed as cell growth inhibition relative to control
[57] = tested on: DU-145; assay: Antiproliferative activity against human DU145 cells at 10 uM assessed as cell growth inhibition relative to control

Measured: growth inhibition (GI)

CNC(=O)NC[C@H]1O[C@@H](n2cnc3c(NC(=O)Nc4ccccc4)ncnc32)[C@H](O)[C@@H]1O
inactive: all assays above
